From PubChem BioAssay (NCI)
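GI50: concentration for 50% inhibition of growth. TGI is the concentration that stops growth completely.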

Columns and labels:
Assay in all cases: NCI-60 cell line screen, 384-well format
[1] = tested on: SN12C renal
[2] = tested on: UO-31 renal
[3] = tested on: HCT-116 colon
[4] = tested on: CAKI-1 renal
[5] = tested on: NCI/ADR-RES ovarian
[6] = tested on: SNB-19 CNS
[7] = tested on: SW-620 colon
[8] = tested on: MDA-MB-231 breast
[9] = tested on: OVCAR-3 ovarian
[10] = tested on: TK-10 renal
[11] = tested on: MCF7 breast
[12] = tested on: MOLT-4 leukemia
[13] = tested on: SNB-75 CNS
[14] = tested on: 786-0 renal
[15] = tested on: CCRF-CEM leukemia
[16] = tested on: NCI-H522 lung
[17] = tested on: OVCAR-8 ovarian
[18] = tested on: SK-MEL-28 melanoma
[19] = tested on: MALME-3M melanoma
[20] = tested on: M14 melanoma
[21] = tested on: SF-295 CNS
[22] = tested on: NCI-H322M lung
[23] = tested on: SF-539 CNS
[24] = tested on: SK-OV-3 ovarian
[25] = tested on: KM12 colon
[26] = tested on: NCI-H460 NSCLC
[27] = tested on: PC-3 prostate
[28] = tested on: COLO 205 colon
[29] = tested on: MDA-MB-435 melanoma
[30] = tested on: HS 578T breast
[31] = tested on: HCT-15 colon
[32] = tested on: SK-MEL-5 melanoma
[33] = tested on: RXF 393 renal
[34] = tested on: DU-145 prostate
[35] = tested on: EKVX NSCLC
[36] = tested on: A549 NSCLC
[37] = tested on: T-47D breast
[38] = tested on: HL-60(TB) leukemia
[39] = tested on: SF-268 CNS
[40] = tested on: HCC-2998 colon
[41] = tested on: OVCAR-4 ovarian
[42] = tested on: A498 renal
[43] = tested on: K-562 leukemia
[44] = tested on: SR leukemia
[45] = tested on: NCI-H226 lung
[46] = tested on: HOP-62 NSCLC
[47] = tested on: U251 glioblastoma
[48] = tested on: ACHN renal
[49] = tested on: UACC-62 melanoma
[50] = tested on: IGROV1 ovarian
[51] = tested on: LOX IMVI melanoma
[52] = tested on: BT-549 breast
[53] = tested on: RPMI-8226 leukemia
[54] = tested on: HT29 colon
[55] = tested on: UACC-257 melanoma
[56] = tested on: MDA-MB-468 breast
[57] = tested on: NCI-H23 lung
[58] = tested on: HOP-92 NSCLC
[59] = tested on: SK-MEL-2 melanoma

CC(C)(O)CS(=O)(=O)Nc1ccc2c(c1)CCN(C(=O)COc1cccnc1)C2 showed a GI50 [1] of less than 10 nM, a TGI [1] of less than 10 nM and a GI50 [2] of 19.5 nM. The TGI [2] was 35.7 nM, the GI50 [3] was less than 10 nM and the TGI [3] was less than 10 nM. For the same compound, the GI50 [4] was 20.4 nM, the TGI [4] was 37.9 nM and the GI50 [5] was 145 nM. It also gave a TGI [5] of 279 nM, a GI50 [6] of 14.9 nM and a TGI [6] of 29.6 nM. For the same compound, the GI50 [7] was less than 10 nM, the TGI [7] was less than 10 nM and the GI50 [8] was 43.5 nM. It also gave a TGI [8] of 135 nM, a GI50 [9] of less than 10 nM and a TGI [9] of 12.2 nM. It also gave a GI50 [10] of 32.3 nM, a TGI [10] of 92 nM and a GI50 [11] of 23.1 nM. It also gave a TGI [11] of 48 nM, a GI50 [12] of less than 10 nM and a TGI [12] of less than 10 nM. It also gave a GI50 [13] of 17.8 nM, a TGI [13] of 32.6 nM and a GI50 [14] of 18.6 nM. It also gave a TGI [14] of 34 nM, a GI50 [15] of less than 10 nM and a TGI [15] of less than 10 nM. The GI50 [16] was less than 10 nM, the TGI [16] was less than 10 nM and the GI50 [17] was less than 10 nM. For the same compound, the TGI [17] was less than 10 nM, the GI50 [18] was 22.8 nM and the TGI [18] was 43.4 nM. For the same compound, the GI50 [19] was 83.5 nM, the TGI [19] was 258 nM and the GI50 [20] was 19.1 nM. For the same compound, the TGI [20] was 33.6 nM, the GI50 [21] was 29.5 nM and the TGI [21] was 74.7 nM. For the same compound, the GI50 [22] was 10.9 nM, the TGI [22] was 38.9 nM and the GI50 [23] was less than 10 nM. The TGI [23] was less than 10 nM, the GI50 [24] was 10 nM and the TGI [24] was 23.6 nM. The GI50 [25] was 17.3 nM, the TGI [25] was 43.2 nM and the GI50 [26] was 239 nM. It also gave a TGI [26] of 435 nM, a GI50 [27] of 10.8 nM and a TGI [27] of 23.2 nM. It also gave a GI50 [28] of less than 10 nM, a TGI [28] of less than 10 nM and a GI50 [29] of 20 nM. For the same compound, the TGI [29] was 34.6 nM, the GI50 [30] was 17.3 nM and the TGI [30] was 32.4 nM. For the same compound, the GI50 [31] was 33.9 nM, the TGI [31] was 108 nM and the GI50 [32] was 20.8 nM. For the same compound, the TGI [32] was 40.3 nM, the GI50 [33] was 18.3 nM and the TGI [33] was 35.6 nM. The GI50 [34] was 22.6 nM, the TGI [34] was 45.9 nM and the GI50 [35] was 46.4 nM. The TGI [35] was 164 nM, the GI50 [36] was 234 nM and the TGI [36] was 494 nM. It also gave a GI50 [37] of less than 10 nM, a TGI [37] of less than 10 nM and a GI50 [38] of less than 10 nM. The TGI [38] was less than 10 nM, the GI50 [39] was 20 nM and the TGI [39] was 35 nM. For the same compound, the GI50 [40] was 21.7 nM, the TGI [40] was 42.1 nM and the GI50 [41] was 31.3 nM. It also gave a TGI [41] of 78.2 nM, a GI50 [42] of 390 nM and a TGI [42] of 3610 nM. It also gave a GI50 [43] of less than 10 nM, a TGI [43] of 10.9 nM and a GI50 [44] of 29 nM. The TGI [44] was 60.4 nM, the GI50 [45] was 871 nM and the TGI [45] was 26000 nM. The GI50 [46] was 25 nM, the TGI [46] was 52.2 nM and the GI50 [47] was less than 10 nM. For the same compound, the TGI [47] was 12.8 nM, the GI50 [48] was 37 nM and the TGI [48] was 127 nM. It also gave a GI50 [49] of 31.3 nM, a TGI [49] of 74.9 nM and a GI50 [50] of 19 nM. The TGI [50] was 34.2 nM, the GI50 [51] was 33.1 nM and the TGI [51] was 170 nM. It also gave a GI50 [52] of 21.6 nM, a TGI [52] of 40.1 nM and a GI50 [53] of 43.6 nM. It also gave a TGI [53] of 163 nM, a GI50 [54] of 36 nM and a TGI [54] of 102 nM. It also gave a GI50 [55] of 143 nM, a TGI [55] of 590 nM and a GI50 [56] of 21.7 nM. It also gave a TGI [56] of 39.7 nM, a GI50 [57] of 29.1 nM and a TGI [57] of 78.7 nM. The GI50 [58] was 121 nM and the TGI [58] was 320 nM.
Work on Cc1c(-c2c(-c3ccc(F)o3)sc3ncnc(O[C@H](Cc4ccccc4OCc4ccnn4CC(F)(F)F)C(=O)O)c23)ccc(OCCN2CCN(C)CC2)c1Cl yielded a GI50 [2] of 15600 nM, a TGI [2] of 29100 nM and a GI50 [5] of 27400 nM. For the same compound, the TGI [5] was 95700 nM, the GI50 [10] was 3270 nM and the TGI [10] was 8770 nM. For the same compound, the GI50 [11] was less than 10 nM, the TGI [11] was 1180 nM and the GI50 [12] was less than 10 nM. For the same compound, the TGI [12] was less than 10 nM, the GI50 [14] was 2110 nM and the TGI [14] was 4500 nM. The GI50 [21] was 1660 nM, the TGI [21] was 3060 nM and the GI50 [59] was less than 10 nM. It also gave a TGI [59] of less than 10 nM, a GI50 [31] of 10400 nM and a TGI [31] of 22200 nM. It also gave a GI50 [38] of less than 10 nM, a TGI [38] of less than 10 nM and a GI50 [42] of 3340 nM. The TGI [42] was 9930 nM, the GI50 [44] was less than 10 nM and the TGI [44] was less than 10 nM. It also gave a GI50 [48] of 6940 nM, a TGI [48] of 18800 nM and a GI50 [49] of less than 10 nM. For the same compound, the TGI [49] was 10.2 nM, the GI50 [53] was less than 10 nM and the TGI [53] was less than 10 nM. For the same compound, the GI50 [56] was less than 10 nM, the TGI [56] was less than 10 nM and the GI50 [57] was 11.3 nM. For the same compound, the TGI [57] was 31.8 nM.
